Assays:
Format in all cases: in vivo
[1] = test system: oat, wild (wild oat, Avena fatua); experiment: Test A postemergence application, visual injury rating 0-100
How it was run: (§1)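 Seeds sown in loam-sand blend got a preemergence directed soil spray, or emerged plants (2-10 cm, one- to two-leaf) got a postemergence spray, of compound in non-phytotoxic solvent with surfactant. After 10 days in greenhouse, injury rated visually versus untreated controls on a 0 (no effect) to 100 (complete control) scale.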

[2] = test system: ryegrass, Italian (italian ryegrass, Lolium multiflorum); experiment: as above
How it was run: as §1

[3] = test system: horseweed (Erigeron canadensis); experiment: as above
How it was run: as §1

[4] = test system: ragweed (common ragweed, Ambrosia artemisiifolia); experiment: as above
How it was run: as §1

soybean (Glycine max) [5] = experiment: as above
How it was run: as §1

[6] = test system: galium (catchweed bedstraw, Galium aparine); experiment: as above
How it was run: as §1

[7] = test system: green foxtail (Setaria viridis); experiment: as above
How it was run: as §1

kochia (Bassia scoparia) [8] = experiment: as above
How it was run: as §1

[9] = test system: barnyardgrass (Echinochloa crus-galli); experiment: as above
How it was run: as §1

[10] = test system: palmer (palmer amaranth, palmer pigweed, Amaranthus palmeri); experiment: as above
How it was run: as §1

corn (Zea mays) [11] = experiment: as above
How it was run: as §1

[12] = test system: wheat (Triticum aestivum); experiment: as above
How it was run: as §1

[13] = test system: blackgrass (Alopecurus myosuroides); experiment: as above
How it was run: as §1

[14] = test system: oat, wild (wild oat, Avena fatua); experiment: Test A preemergence soil spray, visual injury rating 0-100; settings: 10 days
How it was run: as §1

[15] = test system: ryegrass, Italian (italian ryegrass, Lolium multiflorum); experiment: as above; settings: 10 days
How it was run: as §1

[16] = test system: ragweed (common ragweed, Ambrosia artemisiifolia); experiment: as above; settings: 10 days
How it was run: as §1

soybean (Glycine max) [17] = experiment: as above; settings: 10 days
How it was run: as §1

[18] = test system: green foxtail (Setaria viridis); experiment: as above; settings: 10 days
How it was run: as §1

kochia (Bassia scoparia) [19] = experiment: as above; settings: 10 days
How it was run: as §1

[20] = test system: barnyardgrass (Echinochloa crus-galli); experiment: as above; settings: 10 days
How it was run: as §1

[21] = test system: palmer (palmer amaranth, palmer pigweed, Amaranthus palmeri); experiment: as above; settings: 10 days
How it was run: as §1

corn (Zea mays) [22] = experiment: as above; settings: 10 days
How it was run: as §1

[23] = test system: wheat (Triticum aestivum); experiment: as above; settings: 10 days
How it was run: as §1

[24] = test system: blackgrass (Alopecurus myosuroides); experiment: as above; settings: 10 days
How it was run: as §1

[25] = test system: sedge, umbrella (small-flower umbrella sedge, Cyperus difformis); experiment: Test B flooded paddy test, visual plant response rating 0-100; settings: 250 g ai/ha, Flood, applied to paddy water, evaluated after 13 days
How it was run: (§2)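 Visual evaluation after 13 days. Water-applied treatment, 3 cm flood depth held constant, plants at 2-leaf stage at treatment.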

[26] = test system: ducksalad (Heteranthera limosa); experiment: as above; settings: 250 g ai/ha, Flood, applied to paddy water, evaluated after 13 days
How it was run: as §2

[27] = test system: barnyardgrass (Echinochloa crusgalli); experiment: as above; settings: 250 g ai/ha, Flood, applied to paddy water, evaluated after 13 days
How it was run: as §2

rice (Oryza sativa) = experiment: as above; settings: 250 g ai/ha, Flood, applied to paddy water, evaluated after 13 days
How it was run: as §2

[28] = 62 g ai/ha, postemergence, 10 days, 0 = no effect, 100 = complete control
[29] = Postemergence, 16 g ai/ha, greenhouse 10 days, 0 no effect, 100 complete control
[30] = 62 g ai/ha, 0 = no effect, 100 = complete control

In the case of `C=CC1(C(=O)NC2CC(C(=O)OC)C2)CN(c2cc(F)cc(F)c2)C(=O)O1` (stereo not shown) [Compound 173], the “Oat, Wild plant response rating (0-100)” value [1, 28] is reported as 90, the “Oat, Wild plant response rating (0 to 100 scale)” value [1, 29] is reported as 90 and the “Ryegrass, Italian plant response rating (0-100)” value [2, 28] is reported as 90. The “Ryegrass, Italian plant response rating (0 to 100 scale)” value [2, 29] was 80, the “Horseweed plant response rating (0-100)” value [3, 28] was 50 and the “Horseweed plant response rating (0 to 100 scale)” value [3, 29] was 0. The “Ragweed plant response rating (0-100)” value [4, 28] was 80, the “Ragweed plant response rating (0 to 100 scale)” value [4, 29] was 0 and the “Soybean plant response rating (0-100)” value (soybean (Glycine max) [5]; [28]) was 50. For the same compound, the “Soybean plant response rating (0 to 100 scale)” value (soybean (Glycine max) [5]; [29]) was 50, the “Galium plant response rating (0-100)” value [6, 28] was 80 and the “Galium plant response rating (0 to 100 scale)” value [6, 29] was 80. For the same compound, the “Foxtail, Green plant response rating (0-100)” value [7, 28] was 90, the “Foxtail, Green plant response rating (0 to 100 scale)” value [7, 29] was 90 and the “Kochia plant response rating (0-100)” value (kochia (Bassia scoparia) [8]; [28]) was 90. For the same compound, the “Kochia plant response rating (0 to 100 scale)” value (kochia (Bassia scoparia) [8]; [29]) was 90, the “Barnyardgrass plant response rating (0-100)” value [9, 28] was 90 and the “Barnyardgrass plant response rating (0 to 100 scale)” value [9, 29] was 80. The “Pigweed, Palmer plant response rating (0-100)” value [10, 28] was 90, the “Pigweed, Palmer plant response rating (0 to 100 scale)” value [10, 29] was 90 and the “Corn plant response rating (0-100)” value (corn (Zea mays) [11]; [28]) was 100. The “Corn plant response rating (0 to 100 scale)” value (corn (Zea mays) [11]; [29]) was 100, the “Wheat plant response rating (0-100)” value [12, 28] was 90 and the “Wheat plant response rating (0 to 100 scale)” value [12, 29] was 90. For the same compound, the “Blackgrass plant response rating (0-100)” value [13, 28] was 90, the “Blackgrass plant response rating (0 to 100 scale)” value [13, 29] was 90 and the “Oat, Wild plant response rating” value ([14]; 16 g ai/ha, 0 to 100 scale) was 70. For the same compound, the “Oat, Wild plant response rating (0-100)” value [14, 30] was 90, the “Ryegrass, Italian plant response rating” value ([15]; 16 g ai/ha, 0 to 100 scale) was 80 and the “Ryegrass, Italian plant response rating (0-100)” value [15, 30] was 90. For the same compound, the “Ragweed plant response rating” value ([16]; 16 g ai/ha, 0 to 100 scale) was 0, the “Ragweed plant response rating (0-100)” value [16, 30] was 0 and the “Soybean plant response rating” value (soybean (Glycine max) [17]; 16 g ai/ha, 0 to 100 scale) was 30. For the same compound, the “Soybean plant response rating (0-100)” value (soybean (Glycine max) [17]; [30]) was 70, the “Foxtail, Green plant response rating” value ([18]; 16 g ai/ha, 0 to 100 scale) was 90 and the “Foxtail, Green plant response rating (0-100)” value [18, 30] was 100. The “Kochia plant response rating” value (kochia (Bassia scoparia) [19]; 16 g ai/ha, 0 to 100 scale) was 10, the “Kochia plant response rating (0-100)” value (kochia (Bassia scoparia) [19]; [30]) was 80 and the “Barnyardgrass plant response rating” value ([20]; 16 g ai/ha, 0 to 100 scale) was 40. For the same compound, the “Barnyardgrass plant response rating (0-100)” value [20, 30] was 100, the “Pigweed, Palmer plant response rating” value ([21]; 16 g ai/ha, 0 to 100 scale) was 20 and the “Pigweed, Palmer plant response rating (0-100)” value [21, 30] was 90. The “Corn plant response rating” value (corn (Zea mays) [22]; 16 g ai/ha, 0 to 100 scale) was 50, the “Corn plant response rating (0-100)” value (corn (Zea mays) [22]; [30]) was 90 and the “Wheat plant response rating” value ([23]; 16 g ai/ha, 0 to 100 scale) was 90. For the same compound, the “Wheat plant response rating (0-100)” value [23, 30] was 100, the “Blackgrass plant response rating” value ([24]; 16 g ai/ha, 0 to 100 scale) was 90 and the “Blackgrass plant response rating (0-100)” value [24, 30] was 90. The “Plant response rating, Sedge, Umbrella (0 to 100 scale, 0 is no effect and 100 is complete control)” value [25] was 100, the “Plant response rating, Ducksalad (0 to 100 scale, 0 is no effect and 100 is complete control)” value [26] was 95 and the “Plant response rating, Barnyardgrass (0 to 100 scale, 0 is no effect and 100 is complete control)” value [27] was 90. For the same compound, the “Plant response rating, Rice (0 to 100 scale, 0 is no effect and 100 is complete control)” value (rice (Oryza sativa)) was 75.

Source: patent publication US20260285850A1, “SUBSTITUTED OXAZOLIDINONES AND IMIDAZOLINONES AS HERBICIDES” (FMC CORPORATION, priority 2023, published 2026)
